As a reminder, the inhibition is the change of the read-out against control, counted positive when it falls.

Read-outs that look alike come from different tables or passages of the source.

One data set concerns the target CYP2D6 (Homo sapiens, UniProt P10635). Kind of data set: in vitro. The following applies: pH 7.4.
In data set [1] the test system is wild-type HIV-1IIIB strain. Kind of data set: Antiviral activity, MT4 LTR-EGFP cellular assay. The class given is cell-based. The following applies: read-out: Antiviral activity IIIB (pEC50) (converted). How it is done: (§1) Assay 1 &2: Antiviral Activity/Toxicity
The compounds of the present invention were tested for antiviral activity in a cellular assay, which was performed according to the following procedure.
The human T-cell line MT4 is engineered with Green Fluorescent Protein (GFP) and an HIV-specific promoter, HIV-1 long terminal repeat (LTR). This cell line is designated MT4 LTR-EGFP, and can be used for the in vitro evaluation of anti-HIV activity of investigational compounds. In HIV-1 infected cells, the Tat protein is produced which upregulates the LTR promotor and finally leads to stimulation of the GFP reporter production, allowing measuring ongoing HIV-infection fluorometrically.
(§2) The ratio of CC50 to EC50 is defined as the selectivity index (SI) and is an indication of the selectivity of the anti-HIV activity of the inhibitor. The ultimate monitoring of HIV-1 infection and cytotoxicity is done using a scanning microscope. Image analysis allows very sensitive detection of viral infection. Measurements are done before cell necrosis, which usually takes place about five days after infection, in particular measurements are performed three days after infection.
(§3) A pEC50 value corresponds to −log10(EC50). A pCC50 value corresponds to −log10(CC50).

Another data set concerns the target CYP2C9 (Homo sapiens, UniProt P11712). The data set can be described thus: in vitro. The following applies: human, pH 7.4. The text has this:
(§4) Assay 4: CYP450 Inhibition

Data set [2] deals with T1, CYP3A4 (Homo sapiens, UniProt P08684). The data set can be described thus: in vitro. Particulars: human, pH 7.4.
T1 sequence (P08684 whole entry): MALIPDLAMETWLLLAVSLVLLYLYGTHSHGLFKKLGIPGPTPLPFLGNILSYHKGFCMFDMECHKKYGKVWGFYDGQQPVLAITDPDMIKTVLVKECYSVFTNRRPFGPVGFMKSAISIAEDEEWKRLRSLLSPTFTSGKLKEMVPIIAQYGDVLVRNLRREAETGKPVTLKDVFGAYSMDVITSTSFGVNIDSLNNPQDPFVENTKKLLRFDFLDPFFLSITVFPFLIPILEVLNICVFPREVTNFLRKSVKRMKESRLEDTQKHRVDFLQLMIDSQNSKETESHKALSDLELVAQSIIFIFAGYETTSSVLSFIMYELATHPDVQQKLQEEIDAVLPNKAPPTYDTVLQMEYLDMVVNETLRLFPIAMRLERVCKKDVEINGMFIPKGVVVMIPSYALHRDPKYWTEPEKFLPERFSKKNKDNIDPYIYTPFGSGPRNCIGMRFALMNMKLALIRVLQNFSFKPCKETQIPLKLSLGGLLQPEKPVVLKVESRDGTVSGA
Text: as §4

A short description of data set [3]: Metabolic stability of test compounds (HLM15'). The class given is in vitro ADME, human. The following applies: pH 7.4; human liver microsomes 1 mg/ml, 5 μM test compound, 15 min; read-out: Metabolic stability (HLM, % recovery after 15'). The text has this:
Human liver tissue is rinsed in ice-cold 0.1 M Tris-HCl (pH 7.4) buffer to wash excess blood. Tissue is then blotted dry, weighed and chopped coarsely using surgical scissors. The tissue pieces are homogenized in 3 volumes of ice-cold 0.1 M phosphate buffer (pH 7.4) using either a Potter-S (Braun, Italy) equipped with a Teflon pestle or a Sorvall Omni-Mix homogenizer, for 7×10 sec. In both cases, the vessel is kept in/on ice during the homogenization process. Tissue homogenates are centrifuged at 9000×g for 20 min at 4° C. using a Sorvall centrifuge or Beckman Ultracentrifuge. The resulting supernatant can be stored at −80° C. and is designated ‘S9’. The S9 fraction is centrifuged at 100,000×g for 60 min at 4° C. using a Beckman ultracentrifuge. The resulting supernatant is carefully aspirated, aliquoted and designated ‘cytosol’. The pellet is re-suspended in 0.1 M phosphate buffer (pH 7.4) in a final volume of 1 ml per 0.5 g original tissue weight and designated ‘microsomes’. All sub-cellular fractions are aliquoted, immediately frozen in liquid nitrogen and stored at −80° C. until use.
Heat-inactivated (10 min at 95° C.) ‘S9’ or microsomes were used for blank experiments. […] The reaction was incubated for 0 or 15 min. Next, the reaction was stopped by addition of 2 volumes of DMSO (or acetonitrile). Samples were centrifuged (10 min, 900×g) and analyzed by LC-MS.
In general terms: Liver microsomes are a subcellular fraction often used to study metabolism.

A further data set addresses T2, CYP1A2 (Homo sapiens, UniProt P05177).
T2 sequence (P05177 1-516): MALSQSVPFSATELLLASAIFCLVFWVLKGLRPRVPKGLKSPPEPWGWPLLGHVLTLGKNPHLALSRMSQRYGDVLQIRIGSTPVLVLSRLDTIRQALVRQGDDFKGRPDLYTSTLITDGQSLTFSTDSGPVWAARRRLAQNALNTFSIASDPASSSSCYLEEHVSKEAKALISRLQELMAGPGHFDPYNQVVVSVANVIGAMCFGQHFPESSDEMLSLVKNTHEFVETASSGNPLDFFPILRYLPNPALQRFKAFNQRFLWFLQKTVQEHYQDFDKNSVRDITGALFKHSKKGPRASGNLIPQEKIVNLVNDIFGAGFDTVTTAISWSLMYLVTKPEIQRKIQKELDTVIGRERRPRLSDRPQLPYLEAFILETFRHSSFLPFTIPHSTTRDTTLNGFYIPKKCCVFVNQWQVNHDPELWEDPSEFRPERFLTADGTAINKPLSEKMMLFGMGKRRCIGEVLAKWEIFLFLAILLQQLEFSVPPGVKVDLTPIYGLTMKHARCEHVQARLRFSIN
Kind of data set: in vitro. Particulars: E. coli expressed CYP1A2, pH 7.4, probe CEC 5 μM.

Data set [4] addresses T1, CYP3A4. Kind of data set: CYP450 inhibition CDNA-CYP3A4-BFC. The following applies: human, E. coli expressed CYP3A4, pH 7.4, probe BFC 150 μM.
Text: as §4

For data set [5], the target named is T1, CYP3A4. Kind of data set: CYP450 inhibition CDNA-CYP3A4-BQ. Particulars: human, E. coli expressed CYP3A4, pH 7.4, probe BQ 60 μM.
Text: as §4

For a further data set, the target named is CYP2C19 (Homo sapiens, UniProt P33261). The data set can be described thus: in vitro. Particulars: E. coli expressed CYP2C19, pH 7.4, probe CEC 25 μM.
CYP2C19, sequence (P33261 whole entry): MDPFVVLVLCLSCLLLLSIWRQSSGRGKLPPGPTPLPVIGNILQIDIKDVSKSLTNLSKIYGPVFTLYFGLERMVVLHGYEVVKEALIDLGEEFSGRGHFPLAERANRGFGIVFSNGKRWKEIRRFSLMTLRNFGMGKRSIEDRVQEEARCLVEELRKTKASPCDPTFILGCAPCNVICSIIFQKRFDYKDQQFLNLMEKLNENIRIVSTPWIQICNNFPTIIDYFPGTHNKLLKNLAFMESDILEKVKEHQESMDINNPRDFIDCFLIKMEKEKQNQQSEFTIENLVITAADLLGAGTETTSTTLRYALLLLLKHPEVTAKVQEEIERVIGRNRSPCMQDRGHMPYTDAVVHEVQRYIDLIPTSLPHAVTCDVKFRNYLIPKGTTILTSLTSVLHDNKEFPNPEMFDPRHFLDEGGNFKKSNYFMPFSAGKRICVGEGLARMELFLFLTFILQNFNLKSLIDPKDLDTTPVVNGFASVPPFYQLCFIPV
Data set [6] in a line: Toxicity, mock-infected MT4 CMV-EGFP cells. The class given is cell-based, human. The following applies: human, mock-infected MT4 CMV-EGFP cells; read-out: Toxicity MT4 (pCC50) (converted).
Text: as §1
Analogously, MT4 cells are engineered with GFP and the constitutional cytomegalovirus (CMV) promotor. […] Cytotoxic investigational compounds reduce GFP levels of mock-infected MT4 CMV-EGFP cells.
as §2, §3

[7] abbreviates: Human immunodeficiency virus 1, 72 h, wild-type HIV-1 IIIB, MT4 LTR-EGFP cells, three days after infection.

CYP2D6, sequence (P10635 whole entry): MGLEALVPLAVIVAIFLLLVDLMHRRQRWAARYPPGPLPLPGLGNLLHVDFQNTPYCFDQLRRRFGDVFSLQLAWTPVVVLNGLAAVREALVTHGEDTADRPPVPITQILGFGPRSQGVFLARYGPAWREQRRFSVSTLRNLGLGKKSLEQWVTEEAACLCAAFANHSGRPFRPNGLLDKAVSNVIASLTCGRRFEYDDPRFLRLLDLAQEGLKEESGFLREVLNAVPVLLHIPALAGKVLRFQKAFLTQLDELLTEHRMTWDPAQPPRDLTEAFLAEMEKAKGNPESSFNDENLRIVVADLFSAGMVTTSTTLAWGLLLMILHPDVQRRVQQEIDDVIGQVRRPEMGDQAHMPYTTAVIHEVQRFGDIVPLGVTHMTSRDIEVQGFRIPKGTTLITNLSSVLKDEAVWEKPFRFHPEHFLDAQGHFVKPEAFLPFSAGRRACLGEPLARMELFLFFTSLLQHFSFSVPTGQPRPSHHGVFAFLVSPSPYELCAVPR
CYP2C9, sequence (P11712 whole entry): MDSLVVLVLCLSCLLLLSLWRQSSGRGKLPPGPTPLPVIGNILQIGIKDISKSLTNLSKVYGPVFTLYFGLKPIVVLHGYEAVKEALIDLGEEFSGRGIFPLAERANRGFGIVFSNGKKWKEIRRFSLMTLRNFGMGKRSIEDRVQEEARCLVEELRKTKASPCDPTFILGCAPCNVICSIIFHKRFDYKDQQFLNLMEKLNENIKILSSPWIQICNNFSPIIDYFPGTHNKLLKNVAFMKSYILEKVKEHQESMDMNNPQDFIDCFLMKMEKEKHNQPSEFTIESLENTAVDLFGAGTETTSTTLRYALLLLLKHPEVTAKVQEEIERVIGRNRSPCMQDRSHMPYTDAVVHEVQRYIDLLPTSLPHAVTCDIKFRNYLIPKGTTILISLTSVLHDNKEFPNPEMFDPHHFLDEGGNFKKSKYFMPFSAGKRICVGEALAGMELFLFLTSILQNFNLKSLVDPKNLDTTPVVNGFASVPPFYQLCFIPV
Method for CYP1A2: (§5) Inhibition of the metabolism of test compounds by different CYP P450 isoenzymes was determined using E. coli expressed proteins (3A4, 2C9, 2D6, 1A2, and 2C19) that convert their specific substrates into a fluorescent molecule (Table 6). This fluorescent molecule was measured using a fluorescent plate reader (Victor2 (Wallac) or Fluoroskan (Labsystems)). […] CYP P450 enzymes were prepared in house or commercially bought and stored at −80° C.
(§6) The assay was performed in black 96 well Costar plates. Test compounds were added to a CYP P450 enzyme solution in the presence of an NADPH generating system. After 5 min of preincubation at 37° C., the freshly prepared, phosphate buffered (pH 7.4) substrate solution was added. Known CYP P450 inhibitors were used as positive controls, negative controls were run without CYP P450 enzyme. […] Reaction mixtures were incubated at 37° C. for 30 min (CYP3A4-BFC), 30 min (CYP3A4-BQ), 10 min (CYP3A4-DBF), 15 min (CYP1A2-CEC), 30 min (CYP2C9-MFC, CYP2C19-CEC), or 45 min (CYP2D6-AMMC), respectively. Then, the reaction was stopped by the addition of 200 μl acetonitrile, and the fluorescent signal was detected.
(§7) Calculation of CYP P450 isoenzyme inhibition (% inh.):
(§8) % activity=(100/(average positive control−average negative control))×(average sample−average negative control)
Method for CYP2C19: as §5, §6, §7, §8
Method for CYP2D6: as §5, §6, §7, §8

Regarding `C#CCN(C[C@@H](O)[C@H](Cc1ccccc1)NC(=O)OCc1cncs1)C(=O)c1ccc2nc(N(C)CC)oc2c1` [Compound C35, Thiazol-5-ylmethyl (2S,3R)-4-(2-(ethyl(methyl)amino)-N-(prop-2-ynyl)benzo[d]oxazole-6-carboxamido)-3-hydroxy-1-phenylbutan-2-ylcarbamate], the inhibition at 45 min, 10 μM at CYP2D6 was 59%. In addition, the EC50 in data set [1] (setting [7]) was 60.3 µM. For the same molecule, the inhibition at 30 min, 10 μM against CYP2C9 was determined as 96%; at CYP3A4 [4], 96%; on CYP3A4 [5], 76%; at CYP2C19, 101%. The inhibition at 10 min, 10 μM against CYP3A4 [2] was 96%. Also, the recovery at 15 min, 5 μM in data set [3] was 57%. For the same molecule, the inhibition at 15 min, 10 μM against CYP1A2 stood at 7%. Moreover, in data set [6], the CC50 at 3 days was 75.9 µM.
As for `CCN(C)c1nc2ccc(C(=O)N(CC3CCCCC3)C[C@@H](O)[C@H](Cc3ccccc3)NC(=O)OCc3cncs3)cc2o1` [Compound C32, Thiazol-5-ylmethyl (2S,3R)-4-(N-(cyclohexylmethyl)-2-(ethyl(methyl)-amino)benzo[d]oxazole-6-carboxamido)-3-hydroxy-1-phenylbutan-2-yl-carbamate], the inhibition at 45 min, 10 μM on CYP2D6 turned out to be 87%. Further, the EC50 in data set [1] (setting [7]) is 20.9 µM. Moreover, the inhibition at 30 min, 10 μM at CYP2C9 worked out at 98%; against CYP2C19, 100%. Moreover, the recovery at 15 min, 5 μM in [3] worked out at 54%. In addition, on CYP1A2, the inhibition at 15 min, 10 μM stood at 27%. Further, in data set [6], the CC50 at 3 days is 21.4 µM.
Turning to `CC(C)CN(C[C@@H](O)[C@H](Cc1ccccc1)NC(=O)OCc1cncs1)C(=O)c1ccc2nc(N)sc2c1` [Compound C6, Thiazol-5-ylmethyl (2S,3R)-4-(2-amino-N-isobutylbenzo[d]thiazole-6-carboxamido)-3-hydroxy-1-phenylbutan-2-ylcarbamate], on CYP2D6, the inhibition at 45 min, 10 μM came to 83%. Besides, the EC50 in [1] (setting [7]) was 75.9 µM. In addition, the inhibition at 30 min, 10 μM at CYP2C9 amounted to 99%; against CYP3A4 [4] it was 76%; against CYP3A4 [5] it was 85%; against CYP2C19 it was 94%. In addition, the inhibition at 10 min, 10 μM against CYP3A4 [2] stood at 94%. Also, the recovery at 15 min, 5 μM in data set [3] stood at 70%. Further, the inhibition at 15 min, 10 μM against CYP1A2 turned out to be 36%. Also, in data set [6], the CC50 at 3 days is over 93.3 µM.
For the molecule `CC(C)CN(C[C@@H](O)[C@H](Cc1ccccc1)NC(=O)OCc1cncs1)C(=O)c1ccc2nc(NCCN(C)C)oc2c1` [Compound C16, Thiazol-5-ylmethyl (2S,3R)-4-(2-(2-(dimethylamino)ethylamino)-N-isobutyl-benzo[d]oxazole-6-carboxamido)-3-hydroxy-1-phenylbutan-2-ylcarbamate], at CYP2D6, the inhibition at 45 min, 10 μM was 89%. Also, the EC50 in data set [1] (setting [7]) was over 100 µM. Also, the inhibition at 30 min, 10 μM against CYP2C9 was 34%; against CYP3A4 [4] it was 93%; on CYP3A4 [5], 80%; at CYP2C19 it was 36%. For the same molecule, on CYP3A4 [2], the inhibition at 10 min, 10 μM turned out to be 91%. For the same molecule, in data set [3], the recovery at 15 min, 5 μM turned out to be 59%. Moreover, the inhibition at 15 min, 10 μM against CYP1A2 was 0%. Besides, the CC50 at 3 days in data set [6] is over 100 µM.
Turning to `CCN(C)c1nc2ccc(C(=O)N(CC(C)C)C[C@@H](O)[C@H](Cc3ccccc3)NC(=O)OCc3ccncc3)cc2o1` [Compound C10, Pyridin-4-ylmethyl (2S,3R)-4-(2-(ethyl(methyl)amino)-N-isobutylbenzo[d]-oxazole-6-carboxamido)-3-hydroxy-1-phenylbutan-2-ylcarbamate], on CYP2D6, the inhibition at 45 min, 10 μM turned out to be 99%. Also, the EC50 in data set [1] (setting [7]) was 49 µM. Also, the inhibition at 30 min, 10 μM on CYP2C9 came out at 93%; at CYP3A4 [4], 91%; at CYP3A4 [5], 71%; at CYP2C19, 70%. The inhibition at 10 min, 10 μM against CYP3A4 [2] is 95%. In addition, the recovery at 15 min, 5 μM in [3] came out at 13%. Also, the inhibition at 15 min, 10 μM against CYP1A2 stood at 18%. Moreover, the CC50 at 3 days in data set [6] was 46.8 µM.
Take `CC(C)CN(C[C@@H](O)[C@H](Cc1ccccc1)NC(=O)OCc1cncs1)C(=O)c1ccc2nc(N3CCCCC3)oc2c1` [Compound C3, Thiazol-5-ylmethyl (2S,3R)-3-hydroxy-4-(N-isobutyl-2-(piperidin-1y1)-benzo[d]oxazole-6-carboxamido)-1-phenylbutan-2-ylcarbamate]: the inhibition at 45 min, 10 μM on CYP2D6 is 45%. Further, in [1] (setting [7]), the EC50 is 36.3 µM. The inhibition at 30 min, 10 μM at CYP2C9 was 100%; at CYP3A4 [4] it was 95%; at CYP3A4 [5] it was 80%; against CYP2C19 it was 90%. Besides, the inhibition at 10 min, 10 μM against CYP3A4 [2] came to 95%. Moreover, the recovery at 15 min, 5 μM in data set [3] was determined as 71%. In addition, the inhibition at 15 min, 10 μM at CYP1A2 came out at 19%. For the same molecule, the CC50 at 3 days in data set [6] was 32.4 µM.
As for `CCc1nc2ccc(C(=O)N(CC(C)C)C[C@@H](O)[C@H](Cc3ccccc3)NC(=O)OCc3cncs3)cc2o1` [Compound C39, Thiazol-5-ylmethyl (2S,3R)-4-(2-ethyl-N-isobutylbenzo[d]oxazole-6-carboxamido)-3-hydroxy-1-phenylbutan-2-ylcarbamate], the inhibition at 45 min, 10 μM against CYP2D6 is 51%. The EC50 in [1] (Human immunodeficiency virus 1, IIIB, 72 h) was 87.1 µM. Moreover, the inhibition at 30 min, 10 μM turned out to be 95% on CYP2C9, 95% against CYP3A4 [4], 77% against CYP3A4 [5] and 87% against CYP2C19. Also, the inhibition at 10 min, 10 μM against CYP3A4 [2] stood at 92%. The inhibition at 15 min, 10 μM at CYP1A2 came to 2%. Also, in data set [6], the CC50 at 3 days was over 100 µM.
In the case of `Cc1nc2ccc(C(=O)N(CC(C)C)C[C@@H](O)[C@H](Cc3ccccc3)NC(=O)OCc3cncs3)cc2o1` [Compound C40, Thiazol-5-ylmethyl (2S,3R)-3-hydroxy-4-(N-isobutyl-2-methylbenzo[d]-oxazole-6-carboxamido)-1-phenylbutan-2-ylcarbamate], the inhibition at 45 min, 10 μM on CYP2D6 turned out to be 56%. In addition, in data set [1] (setting [7]), the EC50 is over 100 µM. For the same molecule, the inhibition at 30 min, 10 μM against CYP2C9 was 89%; against CYP3A4 [4] it was 94%; on CYP3A4 [5], 74%; at CYP2C19, 79%. For the same molecule, the inhibition at 10 min, 10 μM against CYP3A4 [2] stood at 91%. Further, the recovery at 15 min, 5 μM in data set [3] worked out at 60%. Further, the inhibition at 15 min, 10 μM at CYP1A2 was determined as 0%. For the same molecule, the CC50 at 3 days in [6] is over 100 µM.
